Laboratory results reported in ChEMBL document CHEMBL1201862, “PubChem BioAssay data set” (2004).
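Exposure lasted 48 hours, with cells grown in 96-well plates and compounds tested at five concentrations. Abbreviation: GI50, concentration required for 50% inhibition of growth.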 Active and inactive are the calls of the source. Cut-off read from the data, not from the text of the source: active = GI50 up to about 1.1 µM and inactive = higher.

Tests used:
Assay in all cases: NCI tumour cell line growth inhibition, 48 h
CCRF-CEM = test system: CCRF-CEM
HCT-116 = test system: HCT-116
HOP-62 = test system: HOP-62
HT-29 = test system: HT-29
IGROV-1 = test system: IGROV-1
K562 = test system: K562
MOLT-4 = test system: MOLT-4
NCI-H522 = test system: NCI-H522
NCI/ADR-RES = test system: NCI/ADR-RES
OVCAR-8 = test system: OVCAR-8
RXF 393 = test system: RXF 393
SF-295 = test system: SF-295
SK-MEL-28 = test system: SK-MEL-28
SN12C = test system: SN12C
UO-31 = test system: UO-31
COLO 205 = test system: COLO 205
RPMI-8226 = test system: RPMI-8226
SF-539 = test system: SF-539

Row | Compound | GI50 (CCRF-CEM) | GI50 (HCT-116) | GI50 (HOP-62) | GI50 (HT-29) | GI50 (IGROV-1) | GI50 (K562) | GI50 (MOLT-4) | GI50 (NCI-H522) | GI50 (NCI/ADR-RES) | GI50 (OVCAR-8) | GI50 (RXF 393) | GI50 (SF-295) | GI50 (SK-MEL-28) | GI50 (SN12C) | GI50 (UO-31) | GI50 (COLO 205) | GI50 (RPMI-8226) | GI50 (SF-539)
1 | C=C(C)CNCCN | > 100 µM (inactive) | > 100 µM (inactive) | > 100 µM (inactive) | > 100 µM (inactive) | > 100 µM (inactive) | > 100 µM (inactive) | > 100 µM (inactive) | > 100 µM (inactive) | > 100 µM (inactive) | > 100 µM (inactive) | > 100 µM (inactive) | > 100 µM (inactive) | > 100 µM (inactive) | > 100 µM (inactive) | > 100 µM (inactive) | – | – | –
2 | CC(=O)O[C@H]1CC[C@H]2[C@@H]3CCc4cc(O)c(I)cc4[C@H]3CC[C@]12C | > 10 µM (inactive) | – | – | 17.7 µM (inactive) | 16.9 µM (inactive) | 10.6 µM (inactive) | 4.73 µM (inactive) | 11.8 µM (inactive) | 17.6 µM (inactive) | 18.3 µM (inactive) | – | 15.3 µM (inactive) | 15.3 µM (inactive) | – | 14 µM (inactive) | 18.1 µM (inactive) | 12.4 µM (inactive) | 15.2 µM (inactive)
3 | Cc1ccc(-n2nnc(C#N)c2O)cc1 | > 100 µM (inactive) | > 100 µM (inactive) | > 100 µM (inactive) | > 100 µM (inactive) | > 100 µM (inactive) | > 100 µM (inactive) | > 100 µM (inactive) | > 100 µM (inactive) | > 100 µM (inactive) | > 100 µM (inactive) | > 100 µM (inactive) | > 100 µM (inactive) | > 100 µM (inactive) | > 100 µM (inactive) | > 100 µM (inactive) | > 100 µM (inactive) | > 100 µM (inactive) | –
4 | COC(=O)C1CC(C=O)=C(SC)N1 (centres undefined) | – | > 50 µM (inactive) | > 50 µM (inactive) | > 50 µM (inactive) | > 50 µM (inactive) | > 50 µM (inactive) | > 50 µM (inactive) | > 50 µM (inactive) | > 50 µM (inactive) | > 50 µM (inactive) | > 50 µM (inactive) | > 50 µM (inactive) | > 50 µM (inactive) | – | > 50 µM (inactive) | > 50 µM (inactive) | > 50 µM (inactive) | –
5 | CN1C(=O)C(C(N)=O)C2CC1(C)Oc1ccccc12 (centres undefined) | > 100 µM (inactive) | > 100 µM (inactive) | > 100 µM (inactive) | > 100 µM (inactive) | > 100 µM (inactive) | > 100 µM (inactive) | > 100 µM (inactive) | > 100 µM (inactive) | > 100 µM (inactive) | > 100 µM (inactive) | > 100 µM (inactive) | – | > 100 µM (inactive) | > 100 µM (inactive) | – | > 100 µM (inactive) | > 100 µM (inactive) | –
6 | CCOC(=O)/C(=C\c1ccc(N(C)C)cc1)S(=O)(=O)C(F)(F)C(F)(F)C(F)(F)C(F)(F)F | > 100 µM (inactive) | > 100 µM (inactive) | > 100 µM (inactive) | > 100 µM (inactive) | > 100 µM (inactive) | > 100 µM (inactive) | > 100 µM (inactive) | > 100 µM (inactive) | > 100 µM (inactive) | > 100 µM (inactive) | – | > 100 µM (inactive) | > 100 µM (inactive) | > 100 µM (inactive) | 55.1 µM (inactive) | > 100 µM (inactive) | > 100 µM (inactive) | > 100 µM (inactive)
7 | CCc1nn(S(=O)(=O)c2ccc(C)cc2)c2c1CS(=O)(=O)CC2 | – | > 100 µM (inactive) | 84.1 µM (inactive) | > 100 µM (inactive) | – | > 100 µM (inactive) | > 100 µM (inactive) | – | 38.1 µM (inactive) | 34.9 µM (inactive) | > 100 µM (inactive) | 66.8 µM (inactive) | > 100 µM (inactive) | > 100 µM (inactive) | > 100 µM (inactive) | > 100 µM (inactive) | > 100 µM (inactive) | 91.4 µM (inactive)
8 | CSc1nc(NC(C)C)c2c(n1)Sc1nc3ccccc3n1N=C2 | 6.58 µM (inactive) | 7.01 µM (inactive) | 5.66 µM (inactive) | 21 µM (inactive) | 16.9 µM (inactive) | 50.9 µM (inactive) | 9.84 µM (inactive) | 22.9 µM (inactive) | 6.92 µM (inactive) | 4.92 µM (inactive) | – | 6.03 µM (inactive) | > 100 µM (inactive) | 10.7 µM (inactive) | 5.32 µM (inactive) | 7.69 µM (inactive) | 0.335 µM (active) | –
9 | COc1cc(NS(C)(=O)=O)ccc1N1Cc2c[nH]c3ccc4nccc1c4c23 | 25.5 µM (inactive) | 26.6 µM (inactive) | 54.2 µM (inactive) | 30.8 µM (inactive) | 36.3 µM (inactive) | 22.5 µM (inactive) | 22.3 µM (inactive) | 15.5 µM (inactive) | > 100 µM (inactive) | 35.1 µM (inactive) | – | 41.5 µM (inactive) | 36 µM (inactive) | 20.2 µM (inactive) | > 100 µM (inactive) | 26.7 µM (inactive) | 17.5 µM (inactive) | –
10 | COC(=O)[C@H](Cc1ccccc1)NC(=O)N(CCC#N)CCN(C(=O)N[C@@H](Cc1ccccc1)C(=O)OC)c1ccccc1 | 27.2 µM (inactive) | 28.1 µM (inactive) | 41.1 µM (inactive) | – | 20.8 µM (inactive) | – | 16.6 µM (inactive) | – | > 100 µM (inactive) | 37.8 µM (inactive) | 18.2 µM (inactive) | 33.8 µM (inactive) | 18.2 µM (inactive) | 32.2 µM (inactive) | 17.6 µM (inactive) | 25 µM (inactive) | 21 µM (inactive) | 20.8 µM (inactive)
11 | CC(C)Oc1ccc(CNC2=NCCO2)c2ccccc12 | 13.3 µM (inactive) | 12.6 µM (inactive) | 15.6 µM (inactive) | 4.01 µM (inactive) | 12.6 µM (inactive) | 4.57 µM (inactive) | 4.85 µM (inactive) | – | 12.3 µM (inactive) | 15.2 µM (inactive) | 13.8 µM (inactive) | 13.7 µM (inactive) | 14.5 µM (inactive) | 17.3 µM (inactive) | 5.24 µM (inactive) | 16.4 µM (inactive) | 9.77 µM (inactive) | 9.66 µM (inactive)
12 | C=C(CCOC)CCC1CCCCC(=C)C1=O (centres undefined) | > 100 µM (inactive) | > 100 µM (inactive) | > 100 µM (inactive) | > 100 µM (inactive) | > 100 µM (inactive) | > 100 µM (inactive) | > 100 µM (inactive) | > 100 µM (inactive) | > 100 µM (inactive) | > 100 µM (inactive) | > 100 µM (inactive) | > 100 µM (inactive) | > 100 µM (inactive) | > 100 µM (inactive) | > 100 µM (inactive) | > 100 µM (inactive) | > 100 µM (inactive) | –
13 | CCOC(=O)/C=C(/C=C\COC1CCCCO1)c1ccccc1 (centres undefined) | 25.6 µM (inactive) | 16 µM (inactive) | > 100 µM (inactive) | 15.8 µM (inactive) | 31.2 µM (inactive) | 28.5 µM (inactive) | 20.4 µM (inactive) | 21.7 µM (inactive) | 24.5 µM (inactive) | 23.1 µM (inactive) | 16.1 µM (inactive) | 24.8 µM (inactive) | 30 µM (inactive) | 22.9 µM (inactive) | 36 µM (inactive) | > 100 µM (inactive) | 27.5 µM (inactive) | –
14 | CC1=C(Cl)C[C@@H](/C(C)=C\Cl)O[C@@]1(O)C(Br)Br | 6.27 µM (inactive) | 30.4 µM (inactive) | > 100 µM (inactive) | 32.1 µM (inactive) | 34.3 µM (inactive) | 17.3 µM (inactive) | 15.6 µM (inactive) | 18.9 µM (inactive) | – | 32.1 µM (inactive) | 19.2 µM (inactive) | > 100 µM (inactive) | 59.8 µM (inactive) | 19.5 µM (inactive) | 25.3 µM (inactive) | 29.5 µM (inactive) | 18.2 µM (inactive) | 33.8 µM (inactive)
15 | CCOC(=O)C1=C(C)N(c2ccc(Cl)cc2)C2(O)C=CC(O)=C3C(=O)c4ccccc4C(=O)C312 (centres undefined) | 2.34 µM (inactive) | 3.2 µM (inactive) | 5.2 µM (inactive) | – | 3.94 µM (inactive) | 4.23 µM (inactive) | 2.43 µM (inactive) | 2.21 µM (inactive) | 2.49 µM (inactive) | 5.11 µM (inactive) | – | 6.93 µM (inactive) | – | 4.16 µM (inactive) | 3.92 µM (inactive) | 3.72 µM (inactive) | 1.8 µM (inactive) | 4.16 µM (inactive)
16 | O1C2C1C1OC1C1OC1C1OC21 (centres undefined) | < 0.01 µM (active) | > 100 µM (inactive) | > 100 µM (inactive) | > 100 µM (inactive) | – | > 100 µM (inactive) | > 100 µM (inactive) | > 100 µM (inactive) | > 100 µM (inactive) | > 100 µM (inactive) | – | > 100 µM (inactive) | > 100 µM (inactive) | > 100 µM (inactive) | > 100 µM (inactive) | > 100 µM (inactive) | – | –
17 | COC(=O)c1cc2c(cc1O)[C@@H](NC(C)=O)CCc1cc(OC)c(OC)c(OC)c1-2 | 0.0492 µM (active) | 0.0274 µM (active) | 0.0946 µM (active) | 0.044 µM (active) | 0.0627 µM (active) | 0.0412 µM (active) | 0.0796 µM (active) | 0.0222 µM (active) | 0.114 µM (active) | 0.0577 µM (active) | – | 0.0385 µM (active) | 0.0731 µM (active) | 0.127 µM (active) | 0.445 µM (active) | 0.029 µM (active) | 0.0668 µM (active) | 0.0294 µM (active)
